Laboratory results as given in patent US12102648B2, “Orally-bioavailable nucleoside analogs” (priority 2021, dated 2024).
Read-outs that look alike come from different tables or passages of the source.

Experiment: in vitro
Format: in vitro ADME
Details: human
Method: The bidirectional permeability of compounds across the Caco-2 cell monolayer was assessed. The Caco-2 model is a widely used in vitro model for small intestinal absorption and potential for efflux.
Cell culture. Caco-2 cells were grown in DMEM supplemented with 10% fetal bovine serum (FBS), 1% Penicillin-Streptomycin and 1% MEM NEAA. The cells were incubated at 37° C., 5% CO2/95% air and saturated humidity. After reaching 80-90% confluency, the cells were gently detached with trypsin. Cells at passage 39 were seeded on the 24-well BD insert system at the density of 8×10^4 cells/cm^2 and cultured for 19 days with medium changed every 2-3 days. Measure the transepithelial electrical resistance (TEER) value of each well. The wells can be used only when their TEER values are greater than 600 Ohms/cm^2.
Transport assay. After removing the cell culture medium from the 24-well insert plate, the cells were rinsed with warm transport buffer. Appropriate dosing and receiving solutions were applied to the donor and receiver chambers to initiate the transport assay in apical to basolateral (A to B) or basolateral to apical (B to A) directions ([…] for apical and basolateral wells, respectively). Duplicate wells in each direction were used for the test compound and control compound. The plate was incubated in CO2 incubator at 37° C., with 5% CO2/95% air and saturated humidity without shaking. The sample after 10-minute incubation was used as the T0 sample, and the sample after 90-minute incubation was used as the T90 sample. To and T90 samples were collected from the donor and receiver side of each well at the designed timepoint, mixed with the transport buffer and acetonitrile/MeOH (1:1, v/v) and the internal standard for LC/MS/MS analysis. All samples were vortexed and centrifuged at 4000 rpm at 4° C. for 15 minutes, diluted with pure water and stored at 4° C. before bioanalysis by LC/MS/MS.
Sample analysis. The concentrations of test compounds and control compounds in Caco-2 cells were quantitatively determined by LC/MS/MS method after protein precipitation.
Calculations. The apparent permeability (Papp, cm/s), efflux ratio (ER) and recovery parameters were calculated for Caco-2 drug transport assay using the following equations:
[formula] [formula] where VR is the solution volume in the receiver chamber (0.4 mL on the apical side, 1.2 mL on the basolateral side); Area is the surface area for the insert membrane, i.e., 0.3 cm^2 for the area of the monolayer; Time is incubation time, expressed in seconds, i.e., 5400 s (90 min) for the current experiment; Co is the initial concentration of test compound or peak area ratio of control compounds in the donor chamber (μM); VD is the volume in the donor chambers (0.4 mL on the apical side, 1.2 mL on the basolateral side); CD and CR are the final concentrations of test compounds or peak area ratio of control compounds in donor and receiver chambers, respectively.
Compounds with Papp<1.0 are classified as low permeability, Papp between 1-10 are classified as medium permeability, and Papp≥10 are classified as high permeability. An efflux ratio (ER)>2 indicates the compounds are potential substrates for intestinal cell efflux transporters.

[1] = Caco-2 monolayer, apical to basolateral, 90-minute incubation, read-out: Papp, A-B
[2] = Caco-2 monolayer, basolateral to apical, 90-minute incubation, read-out: Papp, B-A
[3] = Caco-2 monolayer, ER>2 indicates potential efflux transporter substrate, read-out: ER (efflux ratio)

Row | SMILES | Papp A→B at 90 min [1] | Papp B→A at 90 min [2] | efflux ratio at 90 min [3] | Papp A→B at 90 min (Caco-2) | Papp B→A at 90 min (Caco-2) | efflux ratio at 90 min (Caco-2)
1 | CC(=O)OCOC(=O)Nc1ncnn2c([C@]3(C#N)O[C@H](COC(=O)Cc4ccccc4)[C@@H](OC(=O)[C@@H](N)C(C)C)[C@H]3O)ccc12 [Compound 355, (2R,3S,4R,5R)-5-(4-(((acetoxymethoxy)carbonyl)amino)pyrrolo[2,1-f][1,2,4]triazin-7-yl)-5-cyano-4-hydroxy-2-((2-phenylacetoxy)methyl)tetrahydrofuran-3-yl L-valinate] | 1.5 ×10⁻⁶ cm/s | 0.49 ×10⁻⁶ cm/s | 0.33 | – | – | –
2 | CNc1nc(NC(=O)Cc2ccccc2)nc2c1ncn2[C@@H]1O[C@H](COC(C)=O)[C@@H](O)[C@@]1(C)F [Compound 334, ((2R,3R,4R,5R)-4-fluoro-3-hydroxy-4-methyl-5-(6-(methylamino)-2-(2-phenylacetamido)-9H-purin-9-yl)tetrahydrofuran-2-yl)methyl acetate] | 0.76 ×10⁻⁶ cm/s | 19 ×10⁻⁶ cm/s | 25 | – | – | –
3 | N#C[C@@]1(c2ccc3c(N)ncnn23)O[C@H](COC(=O)Cc2ccccc2)[C@@H](O)[C@H]1O [Compound 12, ((2R,3S,4R,5R)-5-(4-aminopyrrolo[2,1-f][1,2,4]triazin-7-yl)-5-cyano-3,4-dihydroxytetrahydrofuran-2-yl)methyl 2-phenylacetate] | 3 ×10⁻⁶ cm/s | 8.9 ×10⁻⁶ cm/s | 3 | – | – | –
4 | CC(C)[C@H](N)C(=O)O[C@H]1[C@@H](O)[C@](C#N)(c2ccc3c(NC(=O)OCOC(=O)C(C)(C)C)ncnn23)O[C@@H]1COC(=O)CC1CCCCC1 [Compound 361, (2R,3S,4R,5R)-5-cyano-2-((2-cyclohexylacetoxy)methyl)-4-hydroxy-5-(4-((((pivaloyloxy)methoxy)carbonyl)amino)pyrrolo[2,1-f][1,2,4]triazin-7-yl)tetrahydrofuran-3-yl L-valinate] | – | – | – | 0.15 ×10⁻⁶ cm/s | 0.05 ×10⁻⁶ cm/s | 0.33
5 | CCCCCOC(=O)Nc1ncnn2c([C@]3(C#N)O[C@H](COC(=O)[C@@H](N)C(C)C)[C@@H](O)[C@H]3O)ccc12 [Compound 86, ((2R,3S,4R,5R)-5-cyano-3,4-dihydroxy-5-(4-(((pentyloxy)carbonyl)amino)pyrrolo[2,1-f][1,2,4]triazin-7-yl)tetrahydrofuran-2-yl)methyl L-valinate] | – | – | – | 0.33 ×10⁻⁶ cm/s | 11 ×10⁻⁶ cm/s | 35
6 | CCCC(=O)Nc1ncnn2c([C@]3(C#N)O[C@H](COC(=O)CC4CCCCC4)[C@@H](OC(=O)[C@@H](N)C(C)C)[C@H]3O)ccc12 [Compound 350, (2R,3S,4R,5R)-5-(4-butyramidopyrrolo[2,1-f][1,2,4]triazin-7-yl)-5-cyano-2-((2-cyclohexylacetoxy)methyl)-4-hydroxytetrahydrofuran-3-yl L-valinate] | – | – | – | 1.9 ×10⁻⁶ cm/s | 6.9 ×10⁻⁶ cm/s | 4.3
7 | CCC(=O)O[C@H]1[C@@H](O)[C@](C#N)(c2ccc3c(N)ncnn23)O[C@@H]1COC(=O)[C@@H](N)C(C)C [Compound 39, ((2R,3S,4R,5R)-5-(4-aminopyrrolo[2,1-f][1,2,4]triazin-7-yl)-5-cyano-4-hydroxy-3-(propionyloxy)tetrahydrofuran-2-yl)methyl L-valinate] | 0.23 ×10⁻⁶ cm/s | 2.3 ×10⁻⁶ cm/s | 10 | – | – | –
8 | N#C[C@@]1(c2ccc3c(N)ncnn23)O[C@H](COC(=O)CC2CCCCC2)[C@@H](O)[C@H]1O [Compound 10, ((2R,3S,4R,5R)-5-(4-aminopyrrolo[2,1-f][1,2,4]triazin-7-yl)-5-cyano-3,4-dihydroxytetrahydrofuran-2-yl)methyl 2-cyclohexylacetate] | – | – | – | 3 ×10⁻⁶ cm/s | 4.7 ×10⁻⁶ cm/s | 1.6
9 | CC(C)C(=O)O[C@H]1[C@@H](O)[C@](C#N)(c2ccc3c(N)ncnn23)O[C@@H]1COC(=O)[C@@H](N)C(C)C [Compound 38, ((2R,3S,4R,5R)-5-(4-aminopyrrolo[2,1-f][1,2,4]triazin-7-yl)-5-cyano-4-hydroxy-3-(isobutyryloxy)tetrahydrofuran-2-yl)methyl L-valinate] | – | – | – | 0.22 ×10⁻⁶ cm/s | 3.3 ×10⁻⁶ cm/s | 15
10 | CCC(=O)OC[C@H]1O[C@@H](n2cnc3c(NC)nc(N)nc32)[C@](C)(F)[C@@H]1OC(C)=O [Compound 220, ((2R,3R,4R,5R)-3-acetoxy-5-(2-amino-6-(methylamino)-9H-purin-9-yl)-4-fluoro-4-methyltetrahydrofuran-2-yl)methyl propionate] | – | – | – | 20 ×10⁻⁶ cm/s | 13 ×10⁻⁶ cm/s | 0.64
11 | CC(C)[C@H](N)C(=O)Nc1ncnn2c([C@]3(C#N)O[C@H](CO)[C@@H](O)[C@H]3O)ccc12 [Compound 83, (2S)-2-amino-N-{7-[(2R,3R,4S,5R)-2-cyano-3,4-dihydroxy-5-(hydroxymethyl)oxolan-2-yl]pyrrolo[2,1-f][1,2,4]triazin-4-yl}-3-methylbutanamide] | – | – | – | 0.07 ×10⁻⁶ cm/s | 0.2 ×10⁻⁶ cm/s | 3
12 | CC(C)CC(=O)O[C@H]1[C@@H](O)[C@](C#N)(c2ccc3c(N)ncnn23)O[C@@H]1COC(=O)CC1CCCCC1 [Compound 25, (2R,3S,4R,5R)-5-(4-aminopyrrolo[2,1-f][1,2,4]triazin-7-yl)-5-cyano-2-((2-cyclohexylacetoxy)methyl)-4-hydroxytetrahydrofuran-3-yl 3-methylbutanoate] | – | – | – | 56 ×10⁻⁶ cm/s | 42 ×10⁻⁶ cm/s | 0.7
13 | N#C[C@@]1(c2ccc3c(NC(=O)[C@@H](N)Cc4ccc(F)cc4)ncnn23)O[C@H](COC(=O)CC2(N)CCCCC2)[C@@H](O)[C@H]1O [Compound 352, ((2R,3S,4R,5R)-5-(4-((S)-2-amino-3-(4-fluorophenyl)propanamido)pyrrolo[2,1-f][1,2,4]triazin-7-yl)-5-cyano-3,4-dihydroxytetrahydrofuran-2-yl)methyl 2-(1-aminocyclohexyl)acetate] | – | – | – | 0.25 ×10⁻⁶ cm/s | 1.4 ×10⁻⁶ cm/s | 5.7
14 | N#C[C@@]1(c2ccc3c(N)ncnn23)O[C@H](COC(=O)CC2CCCCCC2)[C@@H](O)[C@H]1O [Compound 261, ((2R,3S,4R,5R)-5-(4-aminopyrrolo[2,1-f][1,2,4]triazin-7-yl)-5-cyano-3,4-dihydroxytetrahydrofuran-2-yl)methyl 2-cycloheptylacetate] | – | – | – | 0.79 ×10⁻⁶ cm/s | 1.1 ×10⁻⁶ cm/s | 1.4
15 | CCCC(=O)Nc1ncnn2c([C@]3(C#N)O[C@H](COC(=O)CC4(N)CCCCC4)[C@@H](O)[C@H]3O)ccc12 [Compound 354, ((2R,3S,4R,5R)-5-(4-butyramidopyrrolo[2,1-f][1,2,4]triazin-7-yl)-5-cyano-3,4-dihydroxytetrahydrofuran-2-yl)methyl 2-(1-aminocyclohexyl)acetate] | – | – | – | 10 ×10⁻⁶ cm/s | 3 ×10⁻⁶ cm/s | 0.29
16 | CCCCC(=O)Nc1ncnn2c([C@]3(C#N)O[C@H](CO)[C@@H](OC(=O)Cc4ccccc4)[C@H]3O)ccc12 [Compound 340, (2R,3S,4R,5R)-5-cyano-4-hydroxy-2-(hydroxymethyl)-5-(4-pentanamidopyrrolo[2,1-f][1,2,4]triazin-7-yl)tetrahydrofuran-3-yl 2-phenylacetate] | 0.64 ×10⁻⁶ cm/s | 0.23 ×10⁻⁶ cm/s | 0.35 | – | – | –
